# Measurements taken from patent publication US20170223976A1, “MODIFIED MILK POWDER CONTAINING 1,5-ANHYDRO-D-GLUCITOL” (NIHON STARCH CO., LTD., priority 2015, published 2017).
# Tests used:
# [1] = cited from earlier work
# PC12 cells = assay: Determination of neurite outgrowth rate in PC12 cells (image count); assay type: cell-based; settings: for cells showing a neurite outgrowth rate of 1 time or more / cells showing a neurite outgrowth rate of 2 times or more: 96 hours
# Method: PSG-1 belongs to an immunoglobulin super family which includes some having the function of promoting neurogenesis. Then, the influence of 1,5-AG upon neuritogenesis was investigated. This was evaluated in a test system using PC12 cells which are generally used for the evaluation of neuritogenesis.
# PC12 cells (Lot No. 48, Lot No. 51) (RIKEN cell bank, material 1)
# DMEM medium prepared by adding 0.1% of FBS, 0.1% of HS, 1 ng/mL NGF and 1% of penicillin-streptomycin
# PC12 cells were initiated in a T-75 flask by using a growth medium to be cultured in a CO2 incubator (5% CO2, 37° C., moistening). Medium exchange was carried out every 2 days, the cells were collected when 80% confluence was reached, and cells having a passage number of 2 were used in this test. Stated more specifically, after the cells were washed with D-PBS (−), the cells were separated by using 0.05% trypsin, and a growth medium was added to neutralize trypsin. Then, the supernatant was removed by centrifugation (180 g, 5 minutes), a growth medium was added to stir the cells, the number of the cells was counted by using a corpuscle calculating board, and a growth medium was used to achieve a target concentration (2.0×10^3 cells/100 μL).
# (§1) A test was carried out at five concentrations (1.6, 8, 40, 200 and 1,000 μg/mL) of 1,5-AG. Stated more specifically, a 1,5-AG aqueous solution having a concentration of 100 mg/mL was diluted with water to prepare 100 times-concentrated solutions having concentrations of 0.16, 0.8, 4, 20 and 100 mg/mL. These 100 times-concentrated solutions were each added to a test medium in a ratio of 1/100 to achieve final concentrations of 1.6, 8, 40, 200 and 1,000 μg/mL and sterilized with a filter to be used in the test. As a negative control, water was added to a medium in a ratio of 1/100 and sterilized with a filter to be used in the test. As a positive control, a test medium containing a 100 ng/mL nerve growth factor (NGF) was used.
# A growth medium was used to adjust the cells to a concentration of 2.0×10^3 cells/100 μL/well, and the cells were scattered in a collagen-coated 96-well plate to be cultured in a CO2 incubator (5% CO2, 37° C., moistening) for 24 hours. After culture, the medium was replaced by a sample-containing test medium (100 μL), and the cells were cultured in a CO2 incubator for 96 hours. After the end of culture, an image of the cells in each well was taken with a phase difference microscope and used for the measurement of nuetrite outgrowth rate, and nuclei and cytoplasms were fluorescent dyed by using a neurite outgrowth staining kit to measure the number of living cells and the amount of neurite outgrowth. These procedures were carried out five times each.
# Based on the image taken above, the total number of cells, the number of cells showing the same or higher neurite outgrowth than the cell length and the number of cells showing neurites having a length 2 times or more than the cell length were measured from the image of the cells. The percentage (%) of cells showing neurite outgrowth was calculated from the measurement values.
# insulinoma cell lines = settings: cited from earlier work
# PSG-1 gene = PSG-1 gene expression in intestinal tract cells (Caco-2), real-time RT-PCR; assay type: cell-based; settings: Caco-2 cells; for expression level of PSG-1 gene relative to non-added section: 3 days
# Method: PSG-1 is a gene which is expressed in placental cells in large quantities in pregnancy. The influence of 1,5-AG upon the expression of PSG-1 in intestinal tract cells which is not connected with pregnancy was investigated.
# as §1, with “to a medium in” for “to a test medium in”, “of […]” for “of 1.6, 8, 40, 200 and 1,000”, “8 and 40 μg/mL and” for “200 and 1,000 μg/mL and”, “the test.” for “the test. As a positive control, a test medium containing a 100 ng/mL nerve growth factor (NGF) was used.”
# A medium was used to adjust Caco-2 cells to a concentration of 1×10^5 cells/0.3 mL/well, and the cells were scattered on a 48-well plate to be cultured in a CO2 incubator (5% CO2, 37° C.) for 14 days (medium was exchanged every other day). After culture, it was confirmed that the cells were differentiated into intestinal epidermoid cells, the medium was replaced by a sample-containing test medium and a control-containing test medium to culture the cells in a CO2 incubator for 3 days, and total RNA was extracted from the cells to analyze the expression level of PSG-1 gene. These procedures were repeated five times each.
# Total RNA was extracted by using the FastLane Cell cDNA kit. […]
# The synthesis of cDNA was carried out by using the QuantiTect reverse transcription kit. […]
# Real-time PCT was carried out by an intercalator method using SYBR Green I. Stated more specifically, a total of an 8 μL system consisting of 1 μL of synthesized cDNA, 2.6 μL of dsH2O, 4 μL of SYBR Premix ExTag, 0.2 μL of Forward primer (5 μM) and 0.2 μL of Reverse primer (5 μM) was used. […] The relative expression level was calculated by the ? […]
# [2] = system: type 2 diabetes model mice; settings: mouse, in vivo; cited from earlier work
# [3] = excessive amount of 1,5-AG taken as food
structure (smiles),measurement,setting,value
"OC[C@H]1OC[C@H](O)[C@@H](O)[C@@H]1O [1,5-AG, 1,5-anhydro-D-glucitol]","temporary rise of the concentration of 1,5-AG in the blood",[1]; [3],about 100 times
same,"time for the 1,5-AG level in the blood to return to the original level",[1]; [3],about 24 hours
same,"time for the 1,5-AG level in the blood to return to the original value","[1]; ingested temporarily, for example 20 g, eliminated through urine",about 24 hours
same,cells showing a neurite outgrowth rate of 1 time or more,"PC12 cells; 40 μg/mL 1,5-AG",15.8%
same,cells showing a neurite outgrowth rate of 2 times or more,"PC12 cells; 40 μg/mL 1,5-AG",10.3%
same,cells showing a neurite outgrowth rate of 1 time or more,"PC12 cells; 200 μg/mL 1,5-AG",18.7%
same,cells showing a neurite outgrowth rate of 2 times or more,"PC12 cells; 200 μg/mL 1,5-AG",10.4%
same,"cells showing a neurite outgrowth rate of 2 times or more, relative to non-added section","PC12 cells; 40 and 200 μg/mL 1,5-AG",about 2 times
same,secretion of insulin,insulinoma cell lines,promotes the secretion of insulin
same,expression level of PSG-1 gene relative to non-added section,PSG-1 gene; 8 μg/mL,1.31 times
same,expression level of PSG-1 gene relative to non-added section,PSG-1 gene; 40 μg/mL,1.34 times
same,average expression level of PSG-1 gene versus non-added section,"PSG-1 gene; 3 days, 1,5-AG added section",tends to become higher
same,anti-inflammatory effect,[2],anti-inflammatory effect
